Laboratory results: patent US20260215420A1 (Solasta Bio Limited, priority 2022, published 2026)
One block for each molecule: values may come before it.

Key:
Myzus persicae = assay: Leaf dip assay for aphids; type: in vivo; settings: unformulated peptide, compared to vehicle and Spirotetramat, up to 120 hours
Procedure: Leaf Dip Assay—Aphids or Plutella xylostella Based on IRAC susceptibility test method 019 (https://irac-online.org/methods/aphids-adultnymphs/). Fill a small 4 cm wide 3 cm high dish with a 1% agar solution (ensuring 1 cm gap between the agar and the lid) and leave to set. Dip a 2.5 cm leaf disc into 3 ml of treatment solution allowing the treatment to coat the leaf. Leave the disc to dry for 1 hour and place onto the set agar. Place insects (aphids or Plutella xylostella) onto each of the leaf discs. Each unit is sealed with a close-fitting, ventilated lid. Place the agar dishes in a small plastic tray lined with moist tissue paper and ensure the water trays in the bottom of the incubator are filled with clean water and place within the incubator. An assessment of mortality is made at 72, 96 and 120 hours. Leaf dip assays for aphids were performed with SB-P-65, and compared to a negative control vehicle and a current commercial insecticide Spirotetramat. The activity of SB-P-65 is shown in FIGS. 20 and 21; SB-P-65 has good activity whilst being eco-friendly and targeted to specific pests unlike broad spectrum chemical insecticides such as Spirotetramat. Leaf dip assays for aphids were performed with SB-P-66, and compared to a negative control vehicle and a current commercial insecticide Spirotetramat. […]

[1] = gut and MT tissue and contents of final-stage P. xylostella larvae in Schneider's medium; settings: Plutella xylostella, 25° C., up to 24 h
[2] = type: in vitro ADME, Plutella xylostella
Procedure: Plutella xylostella Tissue Biostability Study of SB-P-70 and SB-P-103
SB-P-70 and SB-P-103 were incubated with the gut and MT tissue and contents of final-stage P. xylostella larvae in Schneider's medium at 25° C. Control samples were prepared with peptides in Schneider's medium with no tissue and tissue in Schneider's medium with no peptides. The condition of the peptides after incubation with the tissue was assessed by LC-MS at: 4 h; 8 h; 16 h; and 24 h time points (FIGS. 13 and 14).
In contrast, SB-P-103 remained 44% intact after 24 h tissue incubation.

Plutella xylostella = assay: Leaf dip assay for Plutella xylostella; type: in vivo; settings: unformulated peptide, compared to vehicle and Chlorantraniliprole
Procedure: Leaf Dip Assay—Aphids or Plutella xylostella Based on IRAC susceptibility test method 019 (https://irac-online.org/methods/aphids-adultnymphs/). Fill a small 4 cm wide 3 cm high dish with a 1% agar solution (ensuring 1 cm gap between the agar and the lid) and leave to set. Dip a 2.5 cm leaf disc into 3 ml of treatment solution allowing the treatment to coat the leaf. Leave the disc to dry for 1 hour and place onto the set agar. Place insects (aphids or Plutella xylostella) onto each of the leaf discs. Each unit is sealed with a close-fitting, ventilated lid. Place the agar dishes in a small plastic tray lined with moist tissue paper and ensure the water trays in the bottom of the incubator are filled with clean water and place within the incubator. An assessment of mortality is made at 72, 96 and 120 hours. Leaf dip assays for Plutella xylostella were performed with SB-P-70, and compared to a negative control vehicle and a current commercial insecticide Chlorantraniliprole. The activity of SB-P-70 is shown in FIG. 6; SB-P-70 has good activity whilst being eco-friendly and targeted to specific pests unlike broad spectrum chemical insecticides such as Chlorantraniliprole

Spodoptera frugiperda = assay: Lepidoptera mortality assay (artificial diet); type: in vivo; settings: 1×10^−4 M in artificial diet, L1 larvae, 168 hrs, compared to vehicle and DDT
Source text: Lepidoptera Mortality Assay Against Spodoptera frugiperda Frontier Lepidoptera Artificial diet was made up by preparing agar at 1% and then mixing it with artificial diet powder. Peptide solution was aliquoted in 10 cells and diet poured straight onto it. The final concentration of the peptide was 1×10^−4 M, and each peptide was aliquoted in 10 cells. Once the diet solidified and cooled down, one L1 larvae was infested in each cell. The trays were sealed with heat and let larva were allowed to develop for 168 hrs. Finally, pupation and mortality were scored for. Lepidoptera mortality assays were performed with SB-P-70, and compared to a negative control vehicle and the insecticide dichlorodiphenyltrichloroethane (DDT). The activity of SB-P-70 is shown in FIG. 32; SB-P-70 has good activity whilst being eco-friendly and targeted to specific pests unlike broad spectrum chemical insecticides such as DDT.

Molecule: CC(C)[C@H](NC(=O)C(NC(=O)[C@H](CCCCN)NC(=O)[C@H](CCC(N)=O)NC(=O)[C@@H](N)CCCNC(=N)N)[C@@H](C)O)C(=O)N[C@@H](Cc1ccccc1)C(=O)N[C@@H](CO)C(=O)N[C@@H](CO)C(=O)N[C@@H](Cc1c[nH]c2ccccc12)C(=O)NCC(N)=O (stereo partly shown) [SB-P-65, Hy-RQKTVFSSWG-[NH2]]
activity against Myzus persicae (mortality) (Myzus persicae): good activity

cleaved bond [1]: Ser5-Ala6, major
Molecule: H-KVKFSAWG-NH2

condition of the peptide after incubation with the tissue [2]: completely degraded
site of proteolytic cleavage [2]: between Ser5 and Ala6
Molecule: H-KVKFSAWG-NH2 [SB-P-70, Hy-KVKFSAWG-[NH2]]
activity against Plutella xylostella (mortality) (Plutella xylostella): good activity
activity against Spodoptera frugiperda (pupation and mortality) (Spodoptera frugiperda): good activity

Molecule: H-PAFSSWG-NH2 [SB-P-66, Hy-PAFSSWG-[NH2]]
activity against Myzus persicae (mortality) (Myzus persicae): good activity
